Assay results as given in the supplement of paper PMC10307832.

Key:
Assay in all cases: relative viability (nuclei count vs DMSO), 5 days (fraction); higher = more cells survive
[1] = compound: O[C@@H](COc1cccc2ncccc12)CN1CCN([C@@H]2c3ccccc3[C@@H]3[C@H](c4ccccc42)C3(F)F)CC1 [Zosuquidar] + Cc1cc(Nc2cc(N3CCN(C)CC3)nc(Sc3ccc(NC(=O)C4CC4)cc3)n2)n[nH]1 [Tozasertib] (partner 0.1 µM)
Outline: (§1)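 One day after seeding in 1536-well plates, lung cancer cell lines were dosed by pin tool. Dosing was either single-drug or a fixed anchor-drug dose plus five library-drug doses (not always all listed) in √10 steps. After 5 days, nuclei were stained in one fix-and-stain step and counted on 4× images, and relative viability is the nuclei count of treated wells over that of vehicle wells, given as the median of duplicate plates.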

[2] = compound: COc1cc2nccc(Oc3ccc(NC(=O)C4(C(=O)Nc5ccc(F)cc5)CC4)cc3)c2cc1OC [Cabozantinib] + O=C(CCCCCCC(=O)Nc1ccccc1)NO [Vorinostat] (partner 1 µM)
Outline: as §1

[3] = compound: COc1cc2nccc(Oc3ccc(NC(=O)C4(C(=O)Nc5ccc(F)cc5)CC4)cc3)c2cc1OC [Cabozantinib] + Cc1nc(NC(=O)N2CCC[C@H]2C(N)=O)sc1-c1ccnc(C(C)(C)C(F)(F)F)c1 [Alpelisib] (partner 2 µM)
Outline: as §1

[4] = compound: O[C@@H](COc1cccc2ncccc12)CN1CCN([C@@H]2c3ccccc3[C@@H]3[C@H](c4ccccc42)C3(F)F)CC1 [Zosuquidar] + Cc1nc(Nc2ncc(C(=O)Nc3c(C)cccc3Cl)s2)cc(N2CCN(CCO)CC2)n1 [Dasatinib] (partner 0.075 µM)
Outline: as §1

Row | Cell Line | relative viability ([1]; first compound 0.01 µM) | relative viability ([1]; first compound 0.03162 µM) | relative viability ([1]; first compound 0.1 µM) | relative viability ([1]; first compound 0.3162 µM) | relative viability ([1]; first compound 1 µM) | relative viability ([2]; first compound 0.02 µM) | relative viability ([2]; first compound 0.06325 µM) | relative viability ([2]; first compound 0.2 µM) | relative viability ([2]; first compound 0.6325 µM) | relative viability ([2]; first compound 2 µM) | relative viability ([3]; first compound 0.06325 µM) | relative viability ([3]; first compound 0.2 µM) | relative viability ([3]; first compound 0.6325 µM) | relative viability ([3]; first compound 2 µM) | relative viability ([4]; first compound 0.01 µM) | relative viability ([4]; first compound 0.03162 µM) | relative viability ([4]; first compound 0.1 µM) | relative viability ([4]; first compound 0.3162 µM) | relative viability ([4]; first compound 1 µM) | relative viability ([3]; first compound 0.02 µM)
1 | NCI-H441 | 0.475 | 0.723 | 0.819 | 0.709 | 0.609 | 0.782 | 0.922 | 0.882 | 0.794 | 0.845 | 0.857 | 0.663 | 0.815 | 0.783 | 0.521 | 0.606 | 0.574 | 0.683 | 0.718 | 
2 | A549 |  |  |  |  |  |  |  |  |  |  | 0.884 | 0.833 | 0.809 | 0.794 |  |  |  |  |  | 0.877
3 | NCI-H2342 | 0.499 | 0.468 | 0.55 | 0.608 | 0.597 | 0.735 | 0.776 | 0.697 | 0.798 | 0.724 |  |  |  |  | 0.275 | 0.312 | 0.327 | 0.313 | 0.299 | 
4 | NCI-H1623 | 0.43 | 0.33 | 0.435 | 0.421 | 0.407 |  |  |  |  |  |  |  |  |  | 0.499 | 0.634 | 0.487 | 0.607 | 0.498 | 
5 | LCLC-97TM1 | 0.202 | 0.266 | 0.167 | 0.208 | 0.212 | 0.24 | 0.823 | 0.739 | 0.781 | 0.751 | 0.259 | 0.264 | 0.284 | 0.297 | 0.776 | 0.756 | 0.73 | 0.761 | 0.898 | 
6 | NCI-H2087 | 0.266 |  | 0.27 | 0.228 | 0.218 | 0.752 | 0.781 | 0.563 | 0.49 | 0.715 | 1.12 | 0.978 | 1.03 | 0.995 | 0.773 |  | 0.668 | 0.91 | 0.919 | 1.07
7 | NCI-H647 | 0.26 | 0.266 | 0.564 | 0.228 | 0.284 | 0.621 | 0.734 | 0.696 | 0.43 | 0.496 | 1.43 | 1.37 | 0.956 | 0.535 | 0.168 | 0.121 | 0.137 | 0.229 | 0.163 | 1.2
8 | Calu-6 |  |  |  |  |  |  |  |  |  |  | 1.09 | 1.05 | 1.04 | 0.906 |  |  |  |  |  | 1.02
9 | LCLC-103H | 0.388 | 0.462 | 0.445 | 0.462 | 0.496 | 0.762 | 0.906 | 0.892 | 0.791 | 0.736 | 0.859 | 0.951 | 0.861 | 0.752 | 0.429 | 0.447 | 0.399 | 0.488 | 0.537 | 1.08
10 | HCC-15 | 0.257 | 0.323 | 0.416 | 0.223 | 0.321 | 0.913 | 0.893 | 0.861 | 0.799 | 0.824 | 0.933 | 0.925 | 0.905 | 0.761 | 0.559 | 0.581 | 0.592 | 0.663 | 0.612 | 0.881
11 | NCI-H1650 | 0.43 | 0.426 | 0.478 | 0.469 | 0.371 | 0.655 | 0.643 | 0.519 | 0.586 | 0.543 |  |  |  |  | 0.298 | 0.29 | 0.284 | 0.338 | 0.314 | 
12 | NCI-H522 | 0.536 | 0.537 | 0.585 | 0.601 | 0.556 | 0.737 | 1.01 | 1.03 | 0.902 | 0.902 |  |  |  |  | 0.933 | 0.739 | 0.867 | 0.853 | 1.45 | 
13 | HCC-44 | 0.965 | 1.13 | 1.17 | 1.01 | 0.889 | 1.1 | 1.29 | 1.08 | 1.14 | 1.08 | 0.784 | 0.808 | 0.757 | 0.855 |  |  |  |  |  | 0.864
14 | ChaGo-K-1 | 0.227 | 0.217 | 0.261 | 0.204 | 0.227 | 0.741 | 0.81 | 0.704 | 0.72 | 0.772 |  |  |  |  | 0.615 | 0.583 | 0.602 | 0.737 | 0.624 | 
15 | NCI-H1648 | 0.602 |  | 0.316 | 0.497 | 0.562 | 0.425 | 0.589 |  | 0.55 | 0.408 |  |  |  |  |  |  |  |  |  | 
16 | NCI-H1792 |  |  |  |  |  |  |  |  |  |  | 0.799 | 0.721 | 0.557 | 0.657 | 0.819 | 0.514 |  | 0.927 | 0.757 | 0.721
17 | NCI-H1703 |  |  |  |  |  |  |  |  |  |  | 0.182 | 0.223 | 0.23 | 0.151 |  |  |  |  |  | 0.265
18 | EBC-1 |  |  |  |  |  |  |  |  |  |  | 0.931 | 0.208 | 0.185 | 0.22 |  |  |  |  |  | 0.718
19 | NCI-H1563 |  |  |  |  |  |  |  |  |  |  | 0.916 | 0.912 | 0.864 | 0.806 | 0.435 | 0.47 | 0.51 | 0.459 | 0.454 | 0.931
20 | IA-LM |  |  |  |  |  | 0.995 | 1.18 | 1 | 0.946 | 1.2 | 0.876 | 0.928 | 0.941 | 0.952 |  |  |  |  |  | 0.874
